Reference: ChEMBL document CHEMBL1201862, “PubChem BioAssay data set” (2004)
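Each compound was tested at five concentrations against cells in 96-well plates for 48 hours. Here, GI50 denotes the concentration required for 50% inhibition of growth.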 Activity calls are given as the source filed them. Rule as the data show it: active = GI50 up to about 1.1 µM and inactive = higher.

Experiments:
Assay in all cases: inhibition of tumour cell growth, NCI panel, 48 h
786-0 = tested on: 786-0
A498 = tested on: A498
A549 = tested on: A549
ACHN = tested on: ACHN
CAKI-1 = tested on: CAKI-1
CCRF-CEM = tested on: CCRF-CEM
COLO 205 = tested on: COLO 205
DLD-1 = tested on: DLD-1
DMS-114 = tested on: DMS-114
DMS-273 = tested on: DMS-273
EKVX = tested on: EKVX
HCC 2998 = tested on: HCC 2998
HCT-116 = tested on: HCT-116
HCT-15 = tested on: HCT-15
HL-60 = tested on: HL-60
HOP-18 = tested on: HOP-18
HOP-62 = tested on: HOP-62
HOP-92 = tested on: HOP-92
HT-29 = tested on: HT-29
IGROV-1 = tested on: IGROV-1
K562 = tested on: K562
KM-20L2 = tested on: KM-20L2
KM12 = tested on: KM12
LXFL 529 = tested on: LXFL 529
M14 = tested on: M14
M19-MEL = tested on: M19-MEL
MOLT-4 = tested on: MOLT-4
Malme-3M = tested on: Malme-3M
NCI-H226 = tested on: NCI-H226
NCI-H23 = tested on: NCI-H23
NCI-H460 = tested on: NCI-H460
NCI-H522 = tested on: NCI-H522
OVCAR-4 = tested on: OVCAR-4
OVCAR-5 = tested on: OVCAR-5
OVCAR-8 = tested on: OVCAR-8
RPMI-8226 = tested on: RPMI-8226
RXF 393 = tested on: RXF 393
SF-268 = tested on: SF-268
SF-295 = tested on: SF-295
SF-539 = tested on: SF-539
SK-MEL-28 = tested on: SK-MEL-28
SK-MEL-2 = tested on: SK-MEL-2
SK-MEL-5 = tested on: SK-MEL-5
SK-OV-3 = tested on: SK-OV-3
SN12C = tested on: SN12C
SNB-19 = tested on: SNB-19
SNB-75 = tested on: SNB-75
SNB-78 = tested on: SNB-78
SR = tested on: SR
SW-620 = tested on: SW-620
TK-10 = tested on: TK-10
U-251 = tested on: U-251
UACC-257 = tested on: UACC-257
UACC-62 = tested on: UACC-62
UO-31 = tested on: UO-31
XF498 = tested on: XF498
LOX IMVI = tested on: LOX IMVI
OVCAR-3 = tested on: OVCAR-3

## COC(=O)C1=C(C)C(=O)[C@H]2C(C(=O)OC)CCCC[C@@H]12 (some centres undefined)
786-0
  GI50: > 100 µM (inactive)
A498
  GI50: > 100 µM (inactive)
A549
  GI50: > 100 µM (inactive)
ACHN
  GI50: > 100 µM (inactive)
CAKI-1
  GI50: > 100 µM (inactive)
CCRF-CEM
  GI50: 40.5 µM (inactive)
COLO 205
  GI50: > 100 µM (inactive)
DLD-1
  GI50: > 100 µM (inactive)
DMS-114
  GI50: 20.9 µM (inactive)
DMS-273
  GI50: 90.2 µM (inactive)
EKVX
  GI50: > 100 µM (inactive)
HCC 2998
  GI50: > 100 µM (inactive)
HCT-116
  GI50: 83.9 µM (inactive)
HCT-15
  GI50: > 100 µM
HL-60
  GI50: 30.2 µM (inactive)
HOP-18
  GI50: > 100 µM (inactive)
HOP-62
  GI50: > 100 µM (inactive)
HOP-92
  GI50: 32.3 µM (inactive)
HT-29
  GI50: > 100 µM (inactive)
IGROV-1
  GI50: > 100 µM (inactive)
K562
  GI50: 55.8 µM (inactive)
KM-20L2
  GI50: > 100 µM (inactive)
KM12
  GI50: > 100 µM (inactive)
LXFL 529
  GI50: > 100 µM (inactive)
M14
  GI50: > 100 µM (inactive)
M19-MEL
  GI50: > 100 µM (inactive)
MOLT-4
  GI50: 54.6 µM (inactive)
Malme-3M
  GI50: > 100 µM (inactive)
NCI-H226
  GI50: > 100 µM (inactive)
NCI-H23
  GI50: > 100 µM (inactive)
NCI-H460
  GI50: > 100 µM (inactive)
NCI-H522
  GI50: 29.4 µM (inactive)
OVCAR-4
  GI50: > 100 µM (inactive)
OVCAR-5
  GI50: > 100 µM (inactive)
OVCAR-8
  GI50: > 100 µM (inactive)
RPMI-8226
  GI50: 66.2 µM (inactive)
RXF 393
  GI50: > 100 µM (inactive)
SF-268
  GI50: > 100 µM (inactive)
SF-295
  GI50: > 100 µM (inactive)
SF-539
  GI50: > 100 µM (inactive)
SK-MEL-28
  GI50: > 100 µM (inactive)
SK-MEL-2
  GI50: > 100 µM (inactive)
SK-MEL-5
  GI50: 72.9 µM (inactive)
SK-OV-3
  GI50: > 100 µM (inactive)
SN12C
  GI50: > 100 µM (inactive)
SNB-19
  GI50: > 100 µM (inactive)
SNB-75
  GI50: > 100 µM (inactive)
SNB-78
  GI50: > 100 µM (inactive)
SR
  GI50: 49.1 µM (inactive)
SW-620
  GI50: > 100 µM (inactive)
TK-10
  GI50: > 100 µM (inactive)
U-251
  GI50: > 100 µM (inactive)
UACC-257
  GI50: 45.6 µM (inactive)
UACC-62
  GI50: > 100 µM (inactive)
UO-31
  GI50: > 100 µM (inactive)
XF498
  GI50: 89.9 µM (inactive)

## COc1ccc(C(=O)C/C(=N/NC(N)=S)C(=O)Nc2ccccc2)cc1
786-0
  GI50: > 100 µM (inactive)
A498
  GI50: > 100 µM (inactive)
A549
  GI50: > 100 µM (inactive)
ACHN
  GI50: > 100 µM (inactive)
CAKI-1
  GI50: > 100 µM (inactive)
CCRF-CEM
  GI50: > 100 µM (inactive)
COLO 205
  GI50: > 100 µM (inactive)
DLD-1
  GI50: > 100 µM (inactive)
DMS-114
  GI50: > 100 µM (inactive)
DMS-273
  GI50: > 100 µM (inactive)
EKVX
  GI50: > 100 µM (inactive)
HCC 2998
  GI50: > 100 µM (inactive)
HCT-116
  GI50: > 100 µM (inactive)
HCT-15
  GI50: > 100 µM
HL-60
  GI50: > 100 µM (inactive)
HOP-18
  GI50: > 100 µM (inactive)
HT-29
  GI50: > 100 µM (inactive)
IGROV-1
  GI50: > 100 µM (inactive)
K562
  GI50: > 100 µM (inactive)
KM-20L2
  GI50: > 100 µM (inactive)
KM12
  GI50: > 100 µM (inactive)
LOX IMVI
  GI50: > 100 µM (inactive)
LXFL 529
  GI50: 97.7 µM (inactive)
M14
  GI50: > 100 µM (inactive)
M19-MEL
  GI50: > 100 µM (inactive)
MOLT-4
  GI50: > 100 µM (inactive)
Malme-3M
  GI50: > 100 µM (inactive)
NCI-H226
  GI50: > 100 µM (inactive)
NCI-H23
  GI50: > 100 µM (inactive)
NCI-H460
  GI50: > 100 µM (inactive)
OVCAR-3
  GI50: > 100 µM (inactive)
OVCAR-4
  GI50: 31.9 µM (inactive)
OVCAR-5
  GI50: > 100 µM (inactive)
OVCAR-8
  GI50: > 100 µM (inactive)
RPMI-8226
  GI50: > 100 µM (inactive)
RXF 393
  GI50: > 100 µM (inactive)
SF-268
  GI50: > 100 µM (inactive)
SF-295
  GI50: > 100 µM (inactive)
SF-539
  GI50: > 100 µM (inactive)
SK-MEL-28
  GI50: > 100 µM (inactive)
SK-MEL-2
  GI50: > 100 µM (inactive)
SK-MEL-5
  GI50: > 100 µM (inactive)
SK-OV-3
  GI50: > 100 µM (inactive)
SN12C
  GI50: > 100 µM (inactive)
SNB-19
  GI50: > 100 µM (inactive)
SNB-75
  GI50: 99.3 µM (inactive)
SNB-78
  GI50: > 100 µM (inactive)
SW-620
  GI50: > 100 µM (inactive)
TK-10
  GI50: > 100 µM (inactive)
U-251
  GI50: > 100 µM (inactive)
UACC-257
  GI50: > 100 µM (inactive)
UACC-62
  GI50: > 100 µM (inactive)
UO-31
  GI50: > 100 µM (inactive)
XF498
  GI50: > 100 µM (inactive)

## O=C(O)/C(Cl)=C(\Cl)Nc1cccc(C(F)(F)F)c1
786-0
  GI50: > 100 µM (inactive)
A549
  GI50: > 100 µM (inactive)
ACHN
  GI50: > 100 µM (inactive)
CAKI-1
  GI50: > 100 µM (inactive)
CCRF-CEM
  GI50: > 100 µM (inactive)
COLO 205
  GI50: > 100 µM (inactive)
DLD-1
  GI50: > 100 µM (inactive)
DMS-114
  GI50: > 100 µM (inactive)
DMS-273
  GI50: > 100 µM (inactive)
EKVX
  GI50: > 100 µM (inactive)
HCC 2998
  GI50: > 100 µM (inactive)
HCT-15
  GI50: > 100 µM
HL-60
  GI50: 39.5 µM (inactive)
HOP-18
  GI50: > 100 µM (inactive)
HOP-62
  GI50: > 100 µM (inactive)
HOP-92
  GI50: 9.2 µM (inactive)
HT-29
  GI50: > 100 µM (inactive)
IGROV-1
  GI50: > 100 µM (inactive)
K562
  GI50: > 100 µM (inactive)
KM-20L2
  GI50: > 100 µM (inactive)
LOX IMVI
  GI50: > 100 µM (inactive)
LXFL 529
  GI50: > 100 µM (inactive)
M14
  GI50: 18 µM (inactive)
M19-MEL
  GI50: > 100 µM (inactive)
Malme-3M
  GI50: > 100 µM (inactive)
NCI-H23
  GI50: > 100 µM (inactive)
NCI-H460
  GI50: > 100 µM (inactive)
OVCAR-3
  GI50: > 100 µM (inactive)
OVCAR-4
  GI50: > 100 µM (inactive)
OVCAR-8
  GI50: > 100 µM (inactive)
RXF 393
  GI50: > 100 µM (inactive)
SF-268
  GI50: > 100 µM (inactive)
SF-295
  GI50: > 100 µM (inactive)
SK-MEL-28
  GI50: > 100 µM (inactive)
SK-OV-3
  GI50: > 100 µM (inactive)
SN12C
  GI50: > 100 µM (inactive)
SNB-75
  GI50: > 100 µM (inactive)
SNB-78
  GI50: > 100 µM (inactive)
SW-620
  GI50: > 100 µM (inactive)
TK-10
  GI50: > 100 µM (inactive)
U-251
  GI50: > 100 µM (inactive)
UACC-62
  GI50: > 100 µM (inactive)
UO-31
  GI50: > 100 µM (inactive)
XF498
  GI50: > 100 µM (inactive)
